Source: patent publication US20250154202A1, “CYCLIC EPITOPE TAGS” (BIONTECH SE, priority 2022, published 2025)
pEC50, pKd: −log10 of the molar value. One block for each compound: values may come before it. Bridge positions count the residues as written; N and C are the ends. Peptide text beside a SMILES is read from it.

Key:
anti-ALFA VHH = experiment: binding affinity to the anti-ALFA VHH (log(agonist) vs. response, variable slope); settings: for LogEC50: best-fit values, log(agonist) vs. response, variable slope; for pEC50: binding to anti-ALFA VHH
NbALFA = experiment: SPR measurements of NbALFA binding (Biacore T200, multi cycle kinetics, 1:1 binding model); settings: for pKd / ka / kd: 25° C., HBS-EP+ buffer, biotinylated NbALFA captured
Description: Affinity measurements were performed using a Biacore T200 (GE Healthcare, Biacore T200 control Software 3.2). […] A freshly docked Biotin CAPture chip was rehydrated overnight in the instrument (standby mode). […] The immobilization of the Nanobody was done for 180 s at 10 μL/min on FC2 followed by quenching of unbound streptavidin by 0.1 mM biocytin for 60 s and 30 μL/min on both flow cells. […] After each cycle, the surface was regenerated for 120 s with 10 μL/min using regeneration solution. All measurements were performed at 25° C. using HBS-EP+ buffer (Cytiva Europe, Cat. no BR100669). The control responses from FC1 were subtracted by the sample measurement in FC2 (FC2−FC1) followed by subtraction of the 0 nM blank injection. Resulting binding curves of this multi cycle kinetic experiment were fitted using the Biacore T200 Evaluation Software 3.2 and a 1:1 binding model.

[1] = Plasma stability, human plasma; settings: for remaining at 24 h, 10 µM / remaining at 2 h, 10 µM / remaining at 6 h, 10 µM / half-life: human; for remaining at 24 h, 10 µM: Li-heparin plasma; for remaining at 2 h, 10 µM / remaining at 6 h, 10 µM: human Li-heparin plasma; for half-life: plasma
Description: (§1) Plasma stability measurements were performed by spiking 5 μl of a 1 mM compound stock solution in DMSO into 495 μl of human or mouse Li-heparin plasma (Innovative Research, Cat. No, IPLALIH5OML (human) and IMS-BC-N (Balb C mouse). The spiked plasma was distributed in 50 μl aliquots into capped PCR tubes for incubation at 37° C. At each time point (0, 2, 6, 24 hours*) 3*aliquots were withdrawn from the incubator. Enzymatic reactions were quenched directly after withdrawal by adding 100 μl of acetonitrile/formic acid=99/1 (v/v). Quenched samples were stored at ambient temperature until the end of the incubation period (24 hrs*). After centrifugation, the supernatant was transferred into fresh vials and analyzed by LC-MS/MS in ESI positive mode (Waters ACQUITY UPLC I-Class System (SM-FTN) with Xevo TQD triple quadrupole mass spectrometer with control software Waters MassLynx). […] Values below the limit of quantification (0.1 μM) and outliers of triplicate results were excluded from further calculations. An exponential regression curve was fitted onto the concentration results. Half-life times were calculated from the slope of the regression curve (t1/2=ln(2)/slope).
(§2) For some samples, as indicated below, the incubation time was 6 hours. The 24 hour data was measured in triplicates whereas the 6 hour data was measured in duplicates.

[2] = Plasma stability, mouse plasma; settings: for remaining at 2 h, 10 µM / remaining at 6 h, 10 µM / remaining at 24 h, 10 µM: Balb C, Li-heparin plasma; for remaining at 2 h, 10 µM / remaining at 6 h, 10 µM / remaining at 24 h, 10 µM / half-life: mouse; for half-life: plasma
Description: as §1, §2

[3] = human plasma, 37° C., timepoint 0 h
[4] = human plasma, 37° C., timepoint 0 h, calibration range 0.1 to 10 μM
[5] = human plasma, 37° C., timepoint 2 h
[6] = human plasma, 37° C., timepoint 6 h
[7] = human plasma, 37° C., timepoint 24 h
[8] = Flag (half-life, assay exceeded), human plasma, 37° C.
[9] = Half-life time, human plasma, 37° C., incubation 24 h (triplicates) or 6 h (duplicates)
[10] = mouse plasma, 37° C., timepoint 0 h
[11] = mouse plasma, 37° C., timepoint 0 h, calibration range 0.1 to 10 μM
[12] = mouse plasma, 37° C., timepoint 2 h
[13] = mouse plasma, 37° C., timepoint 6 h
[14] = mouse plasma, 37° C., timepoint 24 h
[15] = Half-life time, mouse plasma, 37° C., incubation 24 h (triplicates) or 6 h (duplicates)
[16] = Flag (half-life, assay exceeded), mouse plasma, 37° C.

SMILES: CC(=O)N[C@@H](CO)C(=O)N[C@@H](CCCNC(=N)N)C(=O)N[C@@H](CC(C)C)C(=O)N[C@@H](CCC(=O)O)C(=O)N[C@@H](CCC(=O)O)C(=O)N[C@@H](CCC(=O)O)C(=O)N[C@@H](CC(C)C)C(=O)N[C@@H](CCCNC(=N)N)C(=O)N[C@H]1CCCCNC(=O)CC[C@@H](C(N)=O)NC(=O)[C@H]([C@@H](C)O)NC(=O)[C@H](CC(C)C)NC(=O)[C@H](CCCNC(=N)N)NC1=O [SD15193, Ac-Ser-Arg-Leu-Glu-Glu-Glu-Leu-Arg-(cyclo9)Lys-Arg-Leu-Thr-(cyclo13)Glu-NH2] (Ac-SRLEEELRKRLTE-NH2; lactam 9-13)
LogEC50 (anti-ALFA VHH): 0.7818
pEC50 (anti-ALFA VHH): 8.22
pKd (NbALFA): 10.25
ka (NbALFA): 1.95e+07 M⁻¹ s⁻¹
kd (NbALFA): 0.00109 s⁻¹
Conc. (% of T0) [1, 3]: 100.0 % of T0
Mean (compound concentration) [1, 3]: 2.81
Tube 2 (compound concentration) [1, 3]: 2.845
Tube 3 (compound concentration) [1, 3]: 2.795
Tube 1 (compound concentration) [1, 4]: 2.799
Mean (compound concentration) [1, 5]: 2.71
Tube 1 (compound concentration) [1, 5]: 2.769
Tube 2 (compound concentration) [1, 5]: 2.647
Tube 3 (compound concentration) [1, 5]: 2.717
Mean (compound concentration) [1, 6]: 2.66
Tube 1 (compound concentration) [1, 6]: 2.774
Tube 2 (compound concentration) [1, 6]: 2.678
Tube 3 (compound concentration) [1, 6]: 2.527
Mean (compound concentration) [1, 7]: 2.09
Tube 1 (compound concentration) [1, 7]: 2.387
Tube 2 (compound concentration) [1, 7]: 1.983
Tube 3 (compound concentration) [1, 7]: 1.888
remaining at 24 h, 10 µM [1]: 74.2%
remaining at 2 h, 10 µM [1]: 96.4%
remaining at 6 h, 10 µM [1]: 94.5%
half-life [1, 8]: > 24 h
half-life [1, 9]: 56.1 h
remaining at 2 h, 10 µM [2]: 87.5%
remaining at 6 h, 10 µM [2]: 72.7%
remaining at 24 h, 10 µM [2]: 39.4%
Conc. (% of T0) [2, 10]: 100.0 % of T0
Mean (compound concentration) [2, 10]: 3.29
Tube 2 (compound concentration) [2, 10]: 3.236
Tube 3 (compound concentration) [2, 10]: 3.311
Tube 1 (compound concentration) [2, 11]: 3.315
Mean (compound concentration) [2, 12]: 2.88
Tube 1 (compound concentration) [2, 12]: 2.864
Tube 2 (compound concentration) [2, 12]: 2.972
Tube 3 (compound concentration) [2, 12]: 2.789
Mean (compound concentration) [2, 13]: 2.39
Tube 1 (compound concentration) [2, 13]: 2.383
Tube 2 (compound concentration) [2, 13]: 2.443
Tube 3 (compound concentration) [2, 13]: 2.346
Mean (compound concentration) [2, 14]: 1.30
Tube 1 (compound concentration) [2, 14]: 1.253
Tube 2 (compound concentration) [2, 14]: 1.397
Tube 3 (compound concentration) [2, 14]: 1.236
half-life [2, 15]: 18.5 h

SMILES: CC(=O)N[C@@H](CO)C(=O)N[C@@H](CCCNC(=N)N)C(=O)N[C@@H](CC(C)C)C(=O)N[C@@H](CCC(=O)O)C(=O)N[C@H]1CCC(=O)NCCCC[C@@H](C(=O)N[C@@H](CCCNC(=N)N)C(=O)N[C@@H](CC(C)C)C(=O)N[C@H](C(=O)N[C@@H](CCC(=O)O)C(N)=O)[C@@H](C)O)NC(=O)[C@H](CCCNC(=N)N)NC(=O)[C@H](CC(C)C)NC(=O)[C@H](CCC(=O)O)NC1=O [SD15194, Ac-Ser-Arg-Leu-Glu-(cyclo5)Glu-Glu-Leu-Arg-(cyclo9)Lys-Arg-Leu-Thr-Glu-NH2] (Ac-SRLEEELRKRLTE-NH2; lactam 5-9)
LogEC50 (anti-ALFA VHH): 0.7763
pEC50 (anti-ALFA VHH): 8.22
pEC50 (anti-ALFA VHH; listed as Ac_5E-9Cyclo_ALFA): 8.22
pKd (NbALFA): 10.42
ka (NbALFA): 1.78e+07 M⁻¹ s⁻¹
kd (NbALFA): 0.00067 s⁻¹
binding with respect to NbALFA (NbALFA; in words): very good binding
Half-life time ([1]; human plasma, 37° C., incubation 24 h (triplicates) or 6 h (duplicates), listed as SD 00015194): 33.48 h
Conc. (% of T0) [1, 3]: 100.0 % of T0
Mean (compound concentration) [1, 3]: 2.26
Tube 2 (compound concentration) [1, 3]: 2.271
Tube 3 (compound concentration) [1, 3]: 2.302
Tube 1 (compound concentration) [1, 4]: 2.215
Mean (compound concentration) [1, 5]: 2.09
Tube 1 (compound concentration) [1, 5]: 2.086
Tube 2 (compound concentration) [1, 5]: 2.052
Tube 3 (compound concentration) [1, 5]: 2.117
Mean (compound concentration) [1, 6]: 1.99
Tube 1 (compound concentration) [1, 6]: 1.884
Tube 2 (compound concentration) [1, 6]: 2.057
Tube 3 (compound concentration) [1, 6]: 2.041
Mean (compound concentration) [1, 7]: 1.36
Tube 1 (compound concentration) [1, 7]: 1.322
Tube 2 (compound concentration) [1, 7]: 1.377
Tube 3 (compound concentration) [1, 7]: 1.368
remaining at 24 h, 10 µM [1]: 59.9%
remaining at 2 h, 10 µM [1]: 92.1%
remaining at 6 h, 10 µM [1]: 88.1%
half-life [1, 8]: > 24 h
half-life [1, 9]: > 24 h
remaining at 2 h, 10 µM [2]: 95.5%
remaining at 6 h, 10 µM [2]: 85.4%
remaining at 24 h, 10 µM [2]: 62.3%
Half-life time ([2]; mouse plasma, 37° C., incubation 24 h (triplicates) or 6 h (duplicates), listed as SD 00015194): 35.69 h
Conc. (% of T0) [2, 10]: 100.0 % of T0
Mean (compound concentration) [2, 10]: 2.57
Tube 2 (compound concentration) [2, 10]: 2.488
Tube 3 (compound concentration) [2, 10]: 2.617
Tube 1 (compound concentration) [2, 11]: 2.606
Mean (compound concentration) [2, 12]: 2.46
Tube 1 (compound concentration) [2, 12]: 2.526
Tube 2 (compound concentration) [2, 12]: 2.467
Tube 3 (compound concentration) [2, 12]: 2.373
Mean (compound concentration) [2, 13]: 2.20
Tube 1 (compound concentration) [2, 13]: 2.178
Tube 2 (compound concentration) [2, 13]: 2.256
Tube 3 (compound concentration) [2, 13]: 2.154
Mean (compound concentration) [2, 14]: 1.60
Tube 1 (compound concentration) [2, 14]: 1.543
Tube 2 (compound concentration) [2, 14]: 1.638
Tube 3 (compound concentration) [2, 14]: 1.62
half-life [2, 16]: > 24 h
half-life [2, 15]: > 24 h

LogEC50 (anti-ALFA VHH): 2.576
pEC50 (anti-ALFA VHH): 6.42
pKd (NbALFA): 9.36
ka (NbALFA): 1.81e+07 M⁻¹ s⁻¹
kd (NbALFA): 0.0079 s⁻¹
Conc. (% of T0) [1, 3]: 100.0 % of T0
Mean (compound concentration) [1, 3]: 2.42
Tube 2 (compound concentration) [1, 3]: 2.424
Tube 3 (compound concentration) [1, 3]: 2.518
Tube 1 (compound concentration) [1, 4]: 2.314
Mean (compound concentration) [1, 5]: 2.21
Tube 1 (compound concentration) [1, 5]: 2.188
Tube 2 (compound concentration) [1, 5]: 2.234
Tube 3 (compound concentration) [1, 5]: 2.212
Mean (compound concentration) [1, 6]: 1.73
Tube 1 (compound concentration) [1, 6]: 1.843
Tube 2 (compound concentration) [1, 6]: 1.803
Tube 3 (compound concentration) [1, 6]: 1.545
Mean (compound concentration) [1, 7]: 0.77
Tube 1 (compound concentration) [1, 7]: 0.844
Tube 2 (compound concentration) [1, 7]: 0.761
Tube 3 (compound concentration) [1, 7]: 0.694
remaining at 24 h, 10 µM ([1]; Conc. (% of T0), human plasma, 37° C., timepoint 24 h): 31.7%
remaining at 2 h, 10 µM ([1]; Conc. (% of T0), human plasma, 37° C., timepoint 2 h): 91.4%
remaining at 6 h, 10 µM ([1]; Conc. (% of T0), human plasma, 37° C., timepoint 6 h): 71.5%
half-life [1, 9]: 14.5 h
remaining at 2 h, 10 µM [2]: 94.3%
remaining at 6 h, 10 µM [2]: 80.5%
remaining at 24 h, 10 µM [2]: 52.5%
Conc. (% of T0) [2, 10]: 100.0 % of T0
Mean (compound concentration) [2, 10]: 2.42
Tube 2 (compound concentration) [2, 10]: 2.424
Tube 3 (compound concentration) [2, 10]: 2.497
Tube 1 (compound concentration) [2, 11]: 2.336
Mean (compound concentration) [2, 12]: 2.28
Tube 1 (compound concentration) [2, 12]: 2.277
Tube 2 (compound concentration) [2, 12]: 2.329
Tube 3 (compound concentration) [2, 12]: 2.237
Mean (compound concentration) [2, 13]: 1.95
Tube 1 (compound concentration) [2, 13]: 1.96
Tube 2 (compound concentration) [2, 13]: 2.008
Tube 3 (compound concentration) [2, 13]: 1.874
Mean (compound concentration) [2, 14]: 1.27
Tube 1 (compound concentration) [2, 14]: 1.334
Tube 2 (compound concentration) [2, 14]: 1.273
Tube 3 (compound concentration) [2, 14]: 1.201
half-life [2, 16]: > 24 h
half-life [2, 15]: 26.2 h
SMILES: CC(=O)N[C@@H](CO)C(=O)N[C@@H](CCCNC(=N)N)C(=O)N[C@@H](CC(C)C)C(=O)N[C@@H](CCC(=O)O)C(=O)N[C@H]1CC(=O)NCCCC[C@@H](C(=O)N[C@@H](CCCNC(=N)N)C(=O)N[C@@H](CC(C)C)C(=O)N[C@H](C(=O)N[C@@H](CCC(=O)O)C(N)=O)[C@@H](C)O)NC(=O)[C@H](CCCNC(=N)N)NC(=O)[C@H](CC(C)C)NC(=O)[C@H](CCC(=O)O)NC1=O [SD15196, Ac-Ser-Arg-Leu-Glu-(cyclo5)Asp-Glu-Leu-Arg-(cyclo9)Lys-Arg-Leu-Thr-Glu-NH2] (Ac-SRLEDELRKRLTE-NH2; lactam 5-9)
